Source: US20200077655A1, “Use of an Acyclic Picolinamide Compound as a Fungicide for Control of Phytopathogenic Fungi in Orchard, Vineyard and Plantation Crops” (Dow AgroSciences LLC, priority 2017, published 2020)

Experiments:
Type in all cases: in vivo
[1] = test system: Erysiphe necator (UNCINE); assay: Field assessment of grape powdery mildew; details: grapes, 5% EC + Trycol
Text: A fungicidal treatment containing Compound I, applied in a 5% EC formulation and tank mixed with an adjuvant (Trycol, 50% w/w at 0.2% v/v), was sprayed on the plant canopy of grape plants (VITVI, Chardonnay variety) at rates of 50, 100 and 150 grams of active ingredient per hectare (g ai/ha). The trial was based on six foliar applications during the growing season at approximately 10 day intervals with natural infections in open field conditions. The treatment was part of an experimental trial designed as a randomized complete block with four replications and a plot of approximately 3.0×7.0 m. Formulations of compound I were applied at water volume of 1000 L/ha, using a self-propelled multi-plot track sprayer (TRACTAIR, Andreoli Engineering) and pressurized at 400 kPa.
Disease evaluations were recorded as percent of leaves and fruit with disease (incidence) and percent diseased area on leaves and fruit (severity, using 100 random leaves and fruit bunches. Grape powdery mildew was assessed three times, with the initial assessment at 2 days after the fourth application. Area under the disease progress curve (AUDPC) was calculated for each plot using the sets of recorded severity data. Relative AUDPC (% control based on AUDPC) was calculated as percent of the nontreated control. Results are given in Table 8.

[2] = test system: Cladosporium caryigenum (CLADCA); assay: Field assessment of two trials for pecan nut scab
Text: A fungicidal treatment containing Compound I, applied in an SC formulation (MSO built-in) and tank mixed with an adjuvant (Agnique BP-420, 50% w/w at 0.2% v/v or Adsee C80W 80%), was sprayed on pecan trees (CYAIL, Desirable variety) from pre-flowering up to nut hardening at rates of 60, 120, 150, and 180 g ai/ha. The experimental plots were run with natural infestation. The treatment was part of an experimental trial designed as a randomized complete block (RCB) with four replications and a plot of approximately 40×40 ft, respectively. In one test, compound I was applied in 9 applications at water volume of 94-115 gallons per acre (gal/acre), using an Airblast sprayer (Hollowcone solid disc D10/45 nozzles) and pressurized at 46-54 psi. In the second test, compound I was applied in 8 applications at water volume of […] sprayer (solid stream nozzle) and pressurized at 300 psi. Both trials targeted 14 day intervals for applications.
Disease evaluations were made as % incidence and % severity nuts in one test, 3 evaluations each, 9 applications, and as % incidence nuts and % severity leaves in the second test, 2 and 3 evaluations, respectively, 8 applications. Area under the disease progress curve (AUDPC) was calculated for each plot using the sets of recorded severity and incidence data. Relative AUDPC (% control based on AUDPC) was calculated as percent of the untreated control.

[3] = test system: Podosphaera leucotricha (PODOLE); assay: Field assessment of apple powdery mildew; details: apples, 5% EC + ETHOMEEN T18H
Procedure: Assessment of compound I of PODOLE on apples was performed in two separate field trials. For the first trial, a fungicidal treatment containing a 5% EC formulation of compound I plus an adjuvant (ETHOMEEN T18H, 50% w/w at 1.0% v/v), was sprayed on the plant canopy of apples (MABSD, Imperatore Dallago variety) seven times during the growing season, the first application at BBCH 61 of plant growth stage, under natural infection of powdery mildew under open field conditions. The following six applications were applied in approximately 10 day intervals. Formulations of compound I were applied at rates of 100, 150, and 200 grams of active ingredient per hectare (g ai/ha). The treatment was part of an experimental trial designed as a randomized complete block with four replications and a plot of approximately 4.2×7.5 m. Formulations of compound I were applied at water volume of 800 L/ha, using a backpack plot sprayer (TRACKSP, Andreoli Engineering) and pressurized at 450 kPa.
For the second trial, a fungicidal treatment containing a 5% EC formulation of compound I plus an adjuvant (ETHOMEEN T18H, 50% w/w at 1.0% v/v), was sprayed on the plant canopy of apples (MABSD, Imperatore Dallago variety) seven times during the growing season, the first application at BBCH 61 of plant growth stage, under natural infection of powdery mildew under open field conditions. The following six applications were applied in approximately 10 day intervals. Formulations of compound I were applied at rates of 100, 150, and 200 grams of active ingredient per hectare (g ai/ha). The treatment was part of an experimental trial designed as a randomized complete block with four replications and a plot of approximately 4.2×7.5 m. Formulations of compound I were applied at water volume of 800 L/ha, using a self-propelled multi-plot track sprayer (TRACKSP, Andreoli Engineering) and pressurized at 450 kPa.
Disease severity in both trials was assessed as the percentage of leaf incidence and leaf infection on a random selection of 100 leaves. In the first trial, powdery mildew infection was assessed three times, 3 days after application D (3DAAD), 7DAAF, and SDAAG. In the second trial, powdery mildew infection was assessed four times, 6DAAB, 2DAAD, 7DAAF and SDAAG. Area under the disease progress curve (AUDPC) was calculated for each plot using the sets of recorded visual infection data. Relative AUDPC (% control based on AUDPC) was calculated as percent of the nontreated control.

Structure (SMILES): COc1ccnc(C(=O)N[C@@H](C)C(=O)O[C@@H](C)C(c2ccc(F)cc2)c2ccc(F)cc2)c1OC(C)=O [Compound I, (S)-1,1-bis(4-fluorophenyl)propan-2-yl (3-acetoxy-4-methoxypicolinoyl)-L-alaninate]
- Percent control (AUDPC) from bunch infection assessments ([1]; 50 g ai/ha): B (51-75)
- Percent control (AUDPC) from bunch infection assessments ([1]; 100 g ai/ha): B (51-75)
- Percent control (AUDPC) from bunch infection assessments ([1]; 150 g ai/ha): A (76-100)
- Percent control (AUDPC) from leaf infection assessments ([1]; 50 g ai/ha): A (76-100)
- Percent control (AUDPC) from leaf infection assessments ([1]; 100 g ai/ha): A (76-100)
- Percent control (AUDPC) from leaf infection assessments ([1]; 150 g ai/ha): A (76-100)
- Calc Percent Control of CLADCA (AUDPC) ([2]; 60 g ai/ha, Agnique BP420, 240 mL/ha): 25.1%
- Calc Percent Control of CLADCA (AUDPC) ([2]; 60 g ai/ha, MSO, 120 g ai/ha): 29.8%
- Calc Percent Control of CLADCA (AUDPC) ([2]; 120 g ai/ha, Adsee C80W 80%, 300 g ai/ha): 21.9%
- Calc Percent Control of CLADCA (AUDPC) ([2]; 120 g ai/ha, Agnique BP420, 480 mL/ha): 28.8%
- Calc Percent Control of CLADCA (AUDPC) ([2]; 120 g ai/ha, MSO, 240 g ai/ha): 30.1%
- Calc Percent Control of CLADCA (AUDPC) ([2]; 150 g ai/ha, Agnique BP420, 600 mL/ha): 35.0%
- Calc Percent Control of CLADCA (AUDPC) ([2]; 150 g ai/ha, MSO, 300 g ai/ha): 29.8%
- Calc Percent Control of CLADCA (AUDPC) ([2]; 180 g ai/ha, Agnique BP420, 720 mL/ha): 32.5%
- Calc Percent Control of CLADCA (AUDPC) ([2]; 180 g ai/ha, MSO, 360 g ai/ha): 53.0%
- Percent control (AUDPC) from leaf infection assessments ([3]; Trial 1, 100 g ai/ha): B (51-75)
- Percent control (AUDPC) from leaf infection assessments ([3]; Trial 1, 150 g ai/ha): A (76-100)
- Percent control (AUDPC) from leaf infection assessments ([3]; Trial 1, 200 g ai/ha): A (76-100)
- Percent control (AUDPC) from leaf infection assessments ([3]; Trial 2, 100 g ai/ha): A (76-100)
- Percent control (AUDPC) from leaf infection assessments ([3]; Trial 2, 150 g ai/ha): A (76-100)
- Percent control (AUDPC) from leaf infection assessments ([3]; Trial 2, 200 g ai/ha): A (76-100)
